Data on two substances can be found in paper PMC3104124 (Journal of molecular biology, 2011).

In this assay the target is T1, Ste2p (wild type, C-terminally truncated) (Saccharomyces cerevisiae, UniProt D6VTK4).
T1 sequence (D6VTK4 1-304): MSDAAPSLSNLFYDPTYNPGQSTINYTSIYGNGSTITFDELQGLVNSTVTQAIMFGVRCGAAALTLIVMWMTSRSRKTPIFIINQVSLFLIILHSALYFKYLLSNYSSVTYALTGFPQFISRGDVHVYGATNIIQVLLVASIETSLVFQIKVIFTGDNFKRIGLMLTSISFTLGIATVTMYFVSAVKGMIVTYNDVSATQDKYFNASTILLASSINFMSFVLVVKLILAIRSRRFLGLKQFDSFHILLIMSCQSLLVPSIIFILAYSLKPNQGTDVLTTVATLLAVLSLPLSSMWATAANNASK
Description: Fluorescent ligand binding. Particulars: FL1/FL2 emission of the ligand labeled with NBD at Lys7, bound to normal Ste2p; normalised to [Lys^7(NBD),Nle^12]α-factor.

For the substance [desTrp^1,desHis^2,Nle^12]α-factor, the “Relative Bmax Ratio” value is on record as 0.42 ± 0.05. In the case of [des-Trp^1,Ala^3,Nle^12]α-factor, the “Relative Bmax Ratio” value stood at 0.49 ± 0.03.
